Measured values published in ChEMBL document CHEMBL1201862, “PubChem BioAssay data set” (2004).
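Five concentrations, 48 hours, 96-well plates. Abbreviation: GI50, concentration required for 50% inhibition of growth.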 Activity calls are given as the source filed them. Rule as the data show it: active = GI50 up to about 1.1 µM and inactive = higher.

Tests used:
Assay in all cases: DTP human tumour cell line panel, 48 h
Hs-578T = test system: Hs-578T
HCT-15 = test system: HCT-15
SK-MEL-28 = test system: SK-MEL-28
M14 = test system: M14
K562 = test system: K562
OVCAR-8 = test system: OVCAR-8
UO-31 = test system: UO-31
SNB-19 = test system: SNB-19
MDA-N = test system: MDA-N
NCI-H226 = test system: NCI-H226
HT-29 = test system: HT-29
MDA-MB-435 = test system: MDA-MB-435
OVCAR-5 = test system: OVCAR-5
HOP-62 = test system: HOP-62
SK-MEL-5 = test system: SK-MEL-5
SR = test system: SR
SF-268 = test system: SF-268
SF-539 = test system: SF-539
IGROV-1 = test system: IGROV-1
TK-10 = test system: TK-10

## C=CC(C)(C)C(=C)C(=O)Nc1ccccc1I
Hs-578T
  GI50: > 100 µM (inactive)
HCT-15
  GI50: > 100 µM
SK-MEL-28
  GI50: > 100 µM (inactive)
M14
  GI50: > 100 µM (inactive)
K562
  GI50: > 100 µM (inactive)
OVCAR-8
  GI50: > 100 µM (inactive)
UO-31
  GI50: > 100 µM (inactive)
SNB-19
  GI50: > 100 µM (inactive)
MDA-N
  GI50: > 100 µM (inactive)
NCI-H226
  GI50: > 100 µM (inactive)
HT-29
  GI50: > 100 µM (inactive)
MDA-MB-435
  GI50: > 100 µM (inactive)
OVCAR-5
  GI50: > 100 µM (inactive)
HOP-62
  GI50: > 100 µM (inactive)
SK-MEL-5
  GI50: > 100 µM (inactive)
SR
  GI50: 86.1 µM (inactive)
SF-268
  GI50: > 100 µM (inactive)

## CN(CC(=O)O)CC(=O)O
Hs-578T
  GI50: > 100 µM (inactive)
HCT-15
  GI50: > 100 µM
SK-MEL-28
  GI50: > 100 µM (inactive)
M14
  GI50: > 100 µM (inactive)
K562
  GI50: > 100 µM (inactive)
OVCAR-8
  GI50: > 100 µM (inactive)
UO-31
  GI50: > 100 µM (inactive)
SNB-19
  GI50: > 100 µM (inactive)
MDA-N
  GI50: > 100 µM (inactive)
NCI-H226
  GI50: > 100 µM (inactive)
HT-29
  GI50: > 100 µM (inactive)
MDA-MB-435
  GI50: > 100 µM (inactive)
OVCAR-5
  GI50: > 100 µM (inactive)
SF-539
  GI50: > 100 µM (inactive)
HOP-62
  GI50: > 100 µM (inactive)
IGROV-1
  GI50: > 100 µM (inactive)
SK-MEL-5
  GI50: 31 µM (inactive)
SF-268
  GI50: > 100 µM (inactive)
TK-10
  GI50: > 100 µM (inactive)

## Cc1cc2c(c(=O)n1C)SCC2
Hs-578T
  GI50: > 100 µM (inactive)
HCT-15
  GI50: > 100 µM
SK-MEL-28
  GI50: > 100 µM (inactive)
M14
  GI50: > 100 µM (inactive)
K562
  GI50: > 100 µM (inactive)
OVCAR-8
  GI50: > 100 µM (inactive)
UO-31
  GI50: > 100 µM (inactive)
SNB-19
  GI50: > 100 µM (inactive)
MDA-N
  GI50: > 100 µM (inactive)
NCI-H226
  GI50: > 100 µM (inactive)
HT-29
  GI50: > 100 µM (inactive)
MDA-MB-435
  GI50: > 100 µM (inactive)
OVCAR-5
  GI50: > 100 µM (inactive)
HOP-62
  GI50: > 100 µM (inactive)
IGROV-1
  GI50: > 100 µM (inactive)
SK-MEL-5
  GI50: > 100 µM (inactive)
SR
  GI50: > 100 µM (inactive)
SF-268
  GI50: > 100 µM (inactive)
TK-10
  GI50: > 100 µM (inactive)

## O=C1C(Cl)=C(NCCN2CCOCC2)C(=O)c2ncccc21
Hs-578T
  GI50: 2.11 µM (inactive)
HCT-15
  GI50: 1.91 µM
SK-MEL-28
  GI50: 1.84 µM (inactive)
M14
  GI50: 1.61 µM (inactive)
K562
  GI50: 0.378 µM (active)
OVCAR-8
  GI50: 1.53 µM (inactive)
UO-31
  GI50: 1.65 µM (inactive)
SNB-19
  GI50: 1.69 µM (inactive)
MDA-N
  GI50: 0.2 µM (active)
NCI-H226
  GI50: 2.1 µM (inactive)
HT-29
  GI50: 2.96 µM (inactive)
MDA-MB-435
  GI50: 0.195 µM (active)
OVCAR-5
  GI50: 2.15 µM (inactive)
SF-539
  GI50: 1.72 µM (inactive)
HOP-62
  GI50: 2.12 µM (inactive)
IGROV-1
  GI50: 1.97 µM (inactive)
SK-MEL-5
  GI50: 0.723 µM (active)
SF-268
  GI50: 1.99 µM (inactive)
TK-10
  GI50: 1.96 µM (inactive)

## CC(=O)Oc1ccc2c3c1[C@H]1O[C@H]1c1cccc(c1-3)[C@@H]1O[C@H]21
Hs-578T
  GI50: 5.58 µM (inactive)
HCT-15
  GI50: 5 µM
SK-MEL-28
  GI50: 8.15 µM (inactive)
M14
  GI50: 4.81 µM (inactive)
K562
  GI50: 5.02 µM (inactive)
OVCAR-8
  GI50: 4.22 µM (inactive)
UO-31
  GI50: 3.74 µM (inactive)
SNB-19
  GI50: 15.8 µM (inactive)
MDA-N
  GI50: 6.87 µM (inactive)
NCI-H226
  GI50: 21.4 µM (inactive)
HT-29
  GI50: 7.18 µM (inactive)
MDA-MB-435
  GI50: 2.04 µM (inactive)
OVCAR-5
  GI50: 14.8 µM (inactive)
HOP-62
  GI50: 5.19 µM (inactive)
SK-MEL-5
  GI50: 4.25 µM (inactive)
SR
  GI50: 10.9 µM (inactive)
SF-268
  GI50: 5.62 µM (inactive)
TK-10
  GI50: 13.9 µM (inactive)

## CCCCN1C(=O)N(c2ccc(OCC)cc2)C2N(CCCC)C1C(C)(C)C2(C)C (stereo unspecified)
Hs-578T
  GI50: 18.6 µM (inactive)
HCT-15
  GI50: 26.6 µM
SK-MEL-28
  GI50: 32.1 µM (inactive)
M14
  GI50: 25.1 µM (inactive)
OVCAR-8
  GI50: 32.3 µM (inactive)
UO-31
  GI50: 27.1 µM (inactive)
SNB-19
  GI50: 35.6 µM (inactive)
MDA-N
  GI50: 22 µM (inactive)
NCI-H226
  GI50: 20.2 µM (inactive)
HT-29
  GI50: 38.5 µM (inactive)
MDA-MB-435
  GI50: 20.2 µM (inactive)
SF-539
  GI50: 16.7 µM (inactive)
HOP-62
  GI50: 35.9 µM (inactive)
IGROV-1
  GI50: 33.6 µM (inactive)
SK-MEL-5
  GI50: 15.7 µM (inactive)
SF-268
  GI50: 21.9 µM (inactive)
TK-10
  GI50: 22.5 µM (inactive)

## CN(C(=O)Cc1cccc(N=C=S)c1)[C@H]1CCCC[C@@H]1N1CCCC1
Hs-578T
  GI50: 25.3 µM (inactive)
HCT-15
  GI50: 14.5 µM
SK-MEL-28
  GI50: 16.1 µM (inactive)
M14
  GI50: 17.8 µM (inactive)
K562
  GI50: 7.59 µM (inactive)
OVCAR-8
  GI50: 16.2 µM (inactive)
UO-31
  GI50: 14.7 µM (inactive)
SNB-19
  GI50: 20.6 µM (inactive)
MDA-N
  GI50: 14.1 µM (inactive)
HT-29
  GI50: 11.5 µM (inactive)
MDA-MB-435
  GI50: 13.9 µM (inactive)
OVCAR-5
  GI50: 19.2 µM (inactive)
HOP-62
  GI50: 16.3 µM (inactive)
IGROV-1
  GI50: 13.9 µM (inactive)
SK-MEL-5
  GI50: 5.73 µM (inactive)
SR
  GI50: 6.73 µM (inactive)
SF-268
  GI50: 20 µM (inactive)
TK-10
  GI50: 11.9 µM (inactive)

## COC1/C=C/C(C)C(C(C)C(OC)C(C)CCC(=O)C(C)C(CC(=O)O)OC)OC(=O)/C=C/C=C(\C)CC(OC)CC2=CC(=O)O[C@H](C2)C(C)C(OC)CC(OC)/C=C/C(C)C(OC)C1 (stereo partly specified)
Hs-578T
  GI50: 0.0759 µM (active)
HCT-15
  GI50: 0.885 µM
SK-MEL-28
  GI50: 0.101 µM (active)
M14
  GI50: 0.222 µM (active)
K562
  GI50: 1.79 µM (inactive)
OVCAR-8
  GI50: 1.14 µM (inactive)
UO-31
  GI50: 0.458 µM (active)
SNB-19
  GI50: 0.441 µM (active)
MDA-N
  GI50: 0.841 µM (active)
NCI-H226
  GI50: 0.543 µM (active)
HT-29
  GI50: 0.916 µM (active)
MDA-MB-435
  GI50: 0.265 µM (active)
OVCAR-5
  GI50: 1.02 µM (active)
HOP-62
  GI50: 0.45 µM (active)
IGROV-1
  GI50: 0.0783 µM (active)
SK-MEL-5
  GI50: 0.455 µM (active)
SR
  GI50: 0.385 µM (active)
SF-268
  GI50: 0.0548 µM (active)
TK-10
  GI50: 0.433 µM (active)
